Data from patent US20040228866A1, “Suppressor genes” (Ludwig Institute for Cancer Research, priority 2000, published 2004).

Test system: Saos-2 cells
Experiment: Apoptosis by flow cytometry (CD20-gated, sub-G1 DNA content) in transfected Saos-2 cells
Type: cell-based
Method: Apoptosis was identified by the expression of the co-transfected cell surface marker CD20, as described in Samuels-Lev et al. (Mol. Cell 8:781-94, 2001, herein incorporated by reference).
The number of apoptotic cells was determined using the methods described in Example 6.
Cells (10^6) were plated 24-48 hours prior to transfection in 10 cm plates. Cells were grown in DMEM supplemented with 10% FCS and transfected with 2 μg of a plasmid expressing CD20 as a transfection marker. Increasing amounts of ASPP1 and ASPP2 were transfected (7.5 μg, 15 μg and 25 μg). 36 hours after the transfection, both attached and floating cells were harvested and analysed using flow cytometry as follows. The transfected cells were gated based on the expression of CD20. The percentage of apoptotic cells was measured by the accumulation of cells with a sub-G1 DNA content derived from at least three individual experiments.
The transfected cells were analyzed by flow cytometry as described in Example 6.

Bcl-2: anti-apoptotic Bcl-2 oncoprotein
effect on the apoptotic function of wild type p53 (co-expressed with p53): decreased
effect on the enhancement of p53 apoptotic function by ASPP1 and ASPP2 (co-expressed with p53 and ASPP1 or ASPP2): effectively prevented ASPP1 and ASPP2 from enhancing the apoptotic function of p53
effect on apoptosis induced by p53H175-L (transcriptionally inactive, mitochondria-targeted mutant p53, FIG. 9A): failed to decrease or inhibit apoptosis induced by p53H175-L
